Reference: article PMC12498190, “A Photocaged N‐Phosphonopiperidinone as a Selective Photo‐Cleavable DPP8/9 Inhibitor” (Chembiochem, 2025)

Biological target: T1, prolyl endopeptidase (PREP) (Homo sapiens, UniProt P48147)
T1 construct: endogenous in cells; host or cells: HEK293 (Cytion, Germany, 300192)
T1 sequence (P48147 1-710): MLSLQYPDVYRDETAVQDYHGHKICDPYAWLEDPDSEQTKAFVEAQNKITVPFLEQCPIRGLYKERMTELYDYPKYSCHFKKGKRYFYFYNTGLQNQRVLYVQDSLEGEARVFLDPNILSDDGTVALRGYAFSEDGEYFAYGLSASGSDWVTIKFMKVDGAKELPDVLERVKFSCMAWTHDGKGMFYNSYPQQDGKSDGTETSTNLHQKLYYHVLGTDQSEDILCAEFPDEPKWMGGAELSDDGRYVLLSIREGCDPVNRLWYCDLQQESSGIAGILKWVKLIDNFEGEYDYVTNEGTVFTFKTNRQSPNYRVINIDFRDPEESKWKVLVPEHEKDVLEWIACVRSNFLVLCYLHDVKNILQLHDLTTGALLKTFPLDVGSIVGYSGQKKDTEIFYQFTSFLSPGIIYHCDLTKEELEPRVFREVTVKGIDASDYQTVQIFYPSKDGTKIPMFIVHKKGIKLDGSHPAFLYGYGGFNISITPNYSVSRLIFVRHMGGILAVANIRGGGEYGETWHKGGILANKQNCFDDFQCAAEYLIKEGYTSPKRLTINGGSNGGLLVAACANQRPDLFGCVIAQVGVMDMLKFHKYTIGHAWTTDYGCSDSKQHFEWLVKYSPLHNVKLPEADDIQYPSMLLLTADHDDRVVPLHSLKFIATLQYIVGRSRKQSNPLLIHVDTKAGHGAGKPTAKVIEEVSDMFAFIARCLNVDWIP
Assay: In vitro gel-based competitive ABPP in HEK293 cell lysates, 70 kDa band
Conditions: HEK293 lysate; 10 µM competitor, 30 min; 10 µM 2; green light 5 min
Description: Therefore, HEK293 cell lysates were pre‐incubated with 10 µM 5 or DMSO vehicle control for 30 min, followed by a labeling reaction with 2 µM of the serine hydrolase‐specific ABP fluorophosphonate‐alkyne (≡FP) or 10 µM 2 (Figure 2B). […] Of note, this band has been previously assigned as DPP9 (DPP8 would migrate in the same range, but is only expressed at low levels in the used cell line and therefore cannot be visualized by this approach).^[ [36] ^, [37] ^] […] Again, this labeling was observed regardless of prior irradiation. Subsequently, the competitive labeling experiment was conducted by pre‐incubation with compound 5, with or without subsequent irradiation.
Figure 2 Competitive ABPP with photo‐cleavable inhibitor 5 in HEK293 cells. […] HEK293 cells were irradiated with a green LED lamp in the presence of 0.5% DMSO for 5 min (‘light’), and cell viability was measured after 24 h. […] For both compounds, cell viability was measured under ‘dark’ (not irradiated) and ‘light’ (irradiated for 5 min with a green LED lamp after the addition of the inhibitor) conditions. […]
For in vitro ABPP, cell lysates were generated from HEK293 cells grown on a 10 cm tissue dish. […] The cell lysates were cleared via centrifugation (30 min, 20,817 × g, 4 °C), and protein concentration was determined with a modified Bradford assay using Roti‐Nanoquant (Carl Roth, Germany). […]

`CCCCCc1ccc(SCCP(=O)(OCC)N2CCC[C@H](NC(=O)OCC3=C4C(C)=CC(C)=[N+]4[B-](C)(C)n4c(C)cc(C)c43)C2=O)cc1` (stereo partly shown) [Compound 5] was tested, and the “Competition of PREP band labeling by ABP 2 (in words)” value was “slight reduction”.
